In patent publication US8741849B2, “Kinase inhibitors and uses thereof” (priority 2007, dated 2014):
Where no end group is shown, it is not given here.

Tests used:
[1] = tested on: SF 539 central nervous system cancer cells; test: Toxicity testing on cancer cell lines (MTT); assay type: cell-based; details: 72 hours, n=4, read-out: Cell Line IC50, SF 539
Experimental: (§1) The seven cell lines were: estrogen dependent MCF-7 breast cancer cells, non estrogen dependent MDA 231 breast cancer cells, SF 539 central nervous system cancer cells, HT29 colon cancer cells, Paca 2 pancreatic cancer cells, PC3 prostate cancer cells, and A549 lung cancer cells. For each cell line, exponentially growing cells were trypsinized and seeded into individual wells of a 96-well plate. Cells were maintained in a humidified, 5% CO2 incubator at 37° C. for 24 hours. The next day, fresh media was added along with 1 μl of a stock solution of peptide to give final peptide concentrations of 0.3 μM, 1 μM, 3 μM, 10 μM, 30 μM, and 100 μM (n=4). Doxorubicin was tested as a positive control. After incubating the cells for 72 hours, to each well was added 20 μl of 0.5% MTT {3-([…])-2,5 diphenyl tetrazolium bromide} solution. The plates then were incubated for an additional 4 hours, at which time the absorbance at 570 nm was measured for each well using a microplate reader. The absorbance was plotted as function of peptide concentration, and IC50 values were calculated for each peptide for each cell line.

[2] = tested on: non estrogen dependent MDA 231 breast cancer cells; test: Toxicity testing on cancer cell lines (MTT); assay type: cell-based; details: 72 hours, n=4, read-out: Cell Line IC50, MDA 231
Experimental: as §1

[3] = tested on: estrogen dependent MCF-7 breast cancer cells; test: Toxicity testing on cancer cell lines (MTT); assay type: cell-based; details: 72 hours, n=4, read-out: Cell Line IC50, MCF-7
Experimental: as §1

HT29 colon cancer cells = test: Toxicity testing on cancer cell lines (MTT); assay type: cell-based; details: 72 hours, n=4, read-out: Cell Line IC50, HT29
Experimental: as §1

A549 lung cancer cells = test: Toxicity testing on cancer cell lines (MTT); assay type: cell-based; details: 72 hours, n=4, read-out: Cell Line IC50, A549
Experimental: as §1

[4] = tested on: PC3 prostate cancer cells; test: Toxicity testing on cancer cell lines (MTT); assay type: cell-based; details: 72 hours, n=4, read-out: Cell Line IC50, PC3
Experimental: as §1

[5] = tested on: Paca 2 pancreatic cancer cells; test: Toxicity testing on cancer cell lines (MTT); assay type: cell-based; details: 72 hours, n=4, read-out: Cell Line IC50, Paca 2
Experimental: as §1

PKB β (h) = target: T1, PKB β (h) (Homo sapiens, UniProt P31751); test: kinase profiler assay (radiometric); assay type: biochemical; details: read-out: Profile-1, PKB β (h)
T1 construct: purchased Upstate (Millipore) KinaseProfiler service
T1 sequence (P31751 whole entry): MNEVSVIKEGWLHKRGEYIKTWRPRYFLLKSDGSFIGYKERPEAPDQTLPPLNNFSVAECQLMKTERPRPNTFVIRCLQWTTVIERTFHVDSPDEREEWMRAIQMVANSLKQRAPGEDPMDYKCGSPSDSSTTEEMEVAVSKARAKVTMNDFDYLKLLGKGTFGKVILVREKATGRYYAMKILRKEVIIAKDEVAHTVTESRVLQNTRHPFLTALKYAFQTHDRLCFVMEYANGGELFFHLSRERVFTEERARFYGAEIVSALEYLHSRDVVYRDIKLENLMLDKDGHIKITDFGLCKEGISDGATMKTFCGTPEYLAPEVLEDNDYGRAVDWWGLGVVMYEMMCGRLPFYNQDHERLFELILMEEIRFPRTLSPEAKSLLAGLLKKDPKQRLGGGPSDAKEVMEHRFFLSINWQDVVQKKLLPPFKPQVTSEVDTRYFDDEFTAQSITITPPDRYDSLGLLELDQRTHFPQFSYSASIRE
Excerpt: KIP peptides […] [SEQ ID NO: 142], […] [SEQ ID NO: 173], and […] [SEQ ID NO: 163] were utilized to profile a variety of different kinases. The kinase profiler assay services provided by Upstate, a part of Millipore Corporation (Billerica, Mass.), were utilized to conduct the kinase profiles. The kinase profiler assays, which are radiometric, are based on measuring the amount of radioactive transfer from an ATP (y-^33P-ATP) to a substrate peptide using known concentrations of kinase enzyme, inhibitor, ATP, and buffer at defined time points and temperatures. Details on the reaction conditions for each kinase are available at www.millipore.com/drugdiscovery/dd3/KinaseProfiler. […] ROCK-1(h) (5-10 mU) was incubated with 8 mM MOPS pH 7.0, 0.2 mM EDTA, 30 i.IM of the peptide […] [SEQ ID NO: 189], 10 mM Mg acetate and y-^33P-ATP (specific activity approximately 500 cpm/pmol, concentration as required) in a final reaction volume of 25 pl. The reaction was initiated by the addition of the MgATP mixture in the absence and presence of inhibitor compounds. After incubation for 40 minutes at room temperature, the reaction was stopped by the addition of 5) 11 of a 3% phosphoric acid solution. 10 pl of the reaction mixture then was spotted onto a P30 filtermat. The filtermat was washed three times for 5 minutes in 75 mM phosphoric acid, once in methanol, dried and counted by scintillation counting. Where the kinase is uninhibited, the kinase phosphorylates a positively charged substrate with radioactive ATP, which then binds to a negatively charged filter membrane. Scintillation counts (radioactivity) directly correlate with kinase activity. […] All profile data less than 100 indicate kinase inhibition while data greater than 100 indicate kinase stimulation.

AMPK (r) = test: kinase profiler assay (radiometric); assay type: biochemical, rat; details: @ = 100 μm peptide; less than 100 = kinase inhibition, greater than 100 = stimulation
Excerpt: KIP peptides […] [SEQ ID NO: 142], […] [SEQ ID NO: 173], and […] [SEQ ID NO: 163] were utilized to profile a variety of different kinases. The kinase profiler assay services provided by Upstate, a part of Millipore Corporation (Billerica, Mass.), were utilized to conduct the kinase profiles. The kinase profiler assays, which are radiometric, are based on measuring the amount of radioactive transfer from an ATP (y-^33P-ATP) to a substrate peptide using known concentrations of kinase enzyme, inhibitor, ATP, and buffer at defined time points and temperatures. Details on the reaction conditions for each kinase are available at www.millipore.com/drugdiscovery/dd3/KinaseProfiler. […] ROCK-1(h) (5-10 mU) was incubated with 8 mM MOPS pH 7.0, 0.2 mM EDTA, 30 i.IM of the peptide […] [SEQ ID NO: 189], 10 mM Mg acetate and y-^33P-ATP (specific activity approximately 500 cpm/pmol, concentration as required) in a final reaction volume of 25 pl. The reaction was initiated by the addition of the MgATP mixture in the absence and presence of inhibitor compounds. […] The filtermat was washed three times for 5 minutes in 75 mM phosphoric acid, once in methanol, dried and counted by scintillation counting. […] Scintillation counts (radioactivity) directly correlate with kinase activity. […]

MAPKAP kinase II (MK2) = MAPKAP kinase II (MK2) (Homo sapiens, UniProt P49137); test: Omnia Lysate Assay for MAPKAP-K2: MK2 reaction velocity; assay type: biochemical; details: same assay conditions as Example 1
MAPKAP kinase II (MK2), sequence (P49137 whole entry, species assumed): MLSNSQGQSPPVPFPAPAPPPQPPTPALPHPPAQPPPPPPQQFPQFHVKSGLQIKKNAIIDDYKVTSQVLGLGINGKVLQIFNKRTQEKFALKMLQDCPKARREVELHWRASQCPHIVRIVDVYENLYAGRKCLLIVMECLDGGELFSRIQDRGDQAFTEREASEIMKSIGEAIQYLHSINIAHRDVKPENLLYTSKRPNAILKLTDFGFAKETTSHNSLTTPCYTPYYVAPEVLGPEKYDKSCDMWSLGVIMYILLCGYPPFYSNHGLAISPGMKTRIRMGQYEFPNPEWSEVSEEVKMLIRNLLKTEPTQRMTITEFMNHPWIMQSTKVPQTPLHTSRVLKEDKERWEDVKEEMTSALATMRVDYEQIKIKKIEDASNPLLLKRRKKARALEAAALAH
Experimental: Using the Omnia™ Lysate Assay for MAPKAP-K2 kit (Invitrogen, Carlsbad, Calif.), the reaction velocity for MK2 was determined in the presence and absence of each of the peptides listed in Table 2. Briefly, inhibitor peptide concentrations at 12.5 μmol, 25 μmol, 50 μmol and 100 μmol were evaluated. The kit contains a proprietary reaction buffer to which the following are added (final concentrations are given): 1 mM ATP, 0.2 mM DTT, 10 μM MAPKAP-K2 Sox-modified peptide substrate, 5 ng MK2, and the peptide inhibitor of interest (final volume of 50 μL). The reactions were performed in the wells of a low protein-binding 96-well plate provided with the kit, and fluorescence readings at 485 nm were taken every 30 seconds for 20 minutes in a Molecular Devices M5 Spectrophotometer. A peptide having the sequence […]
The MK2 inhibition activity of […] [SEQ ID NO: 134] transduction domain was compared with the MK2 inhibition activity of other known transduction domains—[…] [SEQ ID NO: 135] and […] [SEQ ID NO: 190]. The transduction domains were tested for MK2 activity using the same assay conditions as Example 1.
A set of MK2 inhibitor peptides having transduction domains was synthesized (see Table 5). Variants included peptides with the […] [SEQ ID NO: 134] transduction domain and alanine substituted for asparagine, alanine substituted for glycine, or both alanine substitutions in the therapeutic domain. The same peptides with the […] [SEQ ID NO: 135] transduction domain also were prepared. The reaction velocities of these variants were compared to the reaction velocity of a blank with no inhibitor added.

WLRRIKAWLRR [Peptide 3] gave an IC50 [1] of 22 µM, an IC50 [2] of 17.4 µM and an IC50 [3] of 13.5 µM. For the same molecule, the IC50 (HT29 colon cancer cells) was 20.7 µM, the IC50 (A549 lung cancer cells) was 34.3 µM and the IC50 [4] was 35.5 µM. For the same molecule, the IC50 [5] was 42.5 µM.
In the case of `CC(C)C[C@H](NC(=O)[C@H](C)NC(=O)[C@H](CCCCN)NC(=O)[C@H](CCCNC(=N)N)NC(=O)[C@H](Cc1ccc(O)cc1)NC(=O)[C@H](CC(C)C)NC(=O)[C@H](CCCNC(=N)N)NC(=O)[C@H](C)NC(=O)[C@H](C)NC(=O)[C@H](CC(C)C)NC(=O)[C@H](CCCCN)NC(=O)[C@H](C)NC(=O)[C@H](Cc1ccccc1)NC(=O)[C@H](C)NC(=O)[C@@H](N)CCCCN)C(=O)N[C@@H](C)C(=O)N[C@@H](CCCNC(=N)N)C(=O)N[C@@H](CCC(N)=O)C(=O)N[C@@H](CC(C)C)C(=O)NCC(=O)N[C@H](C(=O)N[C@@H](C)C(=O)N[C@@H](C)C(=O)O)C(C)C`, the activity at 100 µM (PKB β (h)) is reported as 28% and the “Profile-1, AMPK (r)” value (AMPK (r)) is reported as 118.
`N=C(N)NCCC[C@H](NC(=O)[C@H](CCCNC(=N)N)NC(=O)[C@H](CCCNC(=N)N)NC(=O)[C@H](CCC(N)=O)NC(=O)[C@H](CCCNC(=N)N)NC(=O)[C@H](CCCNC(=N)N)NC(=O)[C@H](CCCCN)NC(=O)[C@H](CCCCN)NC(=O)[C@H](CCCNC(=N)N)NC(=O)CNC(=O)[C@@H](N)Cc1ccc(O)cc1)C(=O)O` [reference compound] was tested, and the “MK2 inhibition (in words)” value (MAPKAP kinase II (MK2)) was “also inhibit MK2 but not nearly as much as WLRRIKAWLRRIKA”.
For `CC(C)C[C@H](NC(=O)[C@H](C)NC(=O)[C@H](CCCCN)NC(=O)[C@H](CCCNC(=N)N)NC(=O)[C@H](Cc1ccc(O)cc1)NC(=O)[C@H](CC(C)C)NC(=O)[C@H](CCCNC(=N)N)NC(=O)[C@H](C)NC(=O)[C@H](C)NC(=O)[C@H](CC(C)C)NC(=O)[C@H](CCCCN)NC(=O)[C@H](C)NC(=O)[C@@H](N)Cc1ccccc1)C(=O)N[C@@H](C)C(=O)N[C@@H](CCCNC(=N)N)C(=O)N[C@@H](CCC(N)=O)C(=O)N[C@@H](CC(C)C)C(=O)NCC(=O)N[C@H](C(=O)N[C@@H](C)C(=O)N[C@@H](C)C(=O)O)C(C)C`, the activity at 100 µM (PKB β (h)) was 16% and the “Profile-1, AMPK (r)” value (AMPK (r)) was 101.
WLRRIKAWLRRALNRQLGVAA [Peptide 4] gave an IC50 [1] of 10 µM, an IC50 [2] of 12 µM and an IC50 [3] of 4.4 µM. The IC50 (HT29 colon cancer cells) was 11.8 µM, the IC50 (A549 lung cancer cells) was 12.5 µM and the IC50 [4] was 23.7 µM. For the same molecule, the IC50 [5] was 11.2 µM.
In the case of YARAAARQARA [reference compound], the “MK2 inhibition (in words)” value (MAPKAP kinase II (MK2)) is reported as “also inhibit MK2 but not nearly as much as WLRRIKAWLRRIKA”.
WLRRIKAHRRIKALARQLGVAA [Peptide 2] was tested, and the IC50 [1] was 26 µM, the IC50 [2] was 19.9 µM and the IC50 [3] was 7.8 µM. It also gave an IC50 (HT29 colon cancer cells) of 26.4 µM, an IC50 (A549 lung cancer cells) of 31.9 µM and an IC50 [4] of 28.9 µM. For the same molecule, the IC50 [5] was 19.5 µM.
In the case of WLRRIKA [WLRRIKA], the “MK2 inhibition (in words)” value (MAPKAP kinase II (MK2)) is reported as “same level of inhibition as the no inhibitor control”.
With `CC[C@H](C)[C@H](NC(=O)[C@H](CCCNC(=N)N)NC(=O)[C@H](CCCNC(=N)N)NC(=O)[C@H](CC(C)C)NC(=O)[C@H](Cc1c[nH]c2ccccc12)NC(=O)[C@H](C)NC(=O)[C@H](CCCCN)NC(=O)[C@@H](NC(=O)[C@H](CCCNC(=N)N)NC(=O)[C@H](CCCNC(=N)N)NC(=O)[C@H](CC(C)C)NC(=O)[C@@H](N)Cc1c[nH]c2ccccc12)[C@@H](C)CC)C(=O)N[C@@H](CCCCN)C(=O)N[C@@H](C)C(=O)O` the “MK2 inhibition (in words)” value (MAPKAP kinase II (MK2)) was “inhibited MK2 significantly more than KKKALNRQLGVAA”.
